# Assay results taken from US20210070748A1, “INHIBITORS OF BRUTONS TYROSINE KINASE” (Pharmacyclics LLC, priority 2015, published 2021).
# Experiments:
# Format in all cases: biochemical
# BTK-WT = biological target: T1, BTK-WT (Homo sapiens, UniProt Q06187); test: Btk in vitro inhibitory activity (one of Method A TR-FRET, Method B electrophoretic mobility shift, Method C radiometric filter binding); conditions: E compounds, Table 17; read-out: IC50 BTK-WT
# T1 construct: purified from insect cells as a full-length construct containing an N-terminal 6X-His tag; His6 (N); made in house; host or cells: insect cells (baculovirus Sf21 in Method B)
# T1 sequence (Q06187 whole entry): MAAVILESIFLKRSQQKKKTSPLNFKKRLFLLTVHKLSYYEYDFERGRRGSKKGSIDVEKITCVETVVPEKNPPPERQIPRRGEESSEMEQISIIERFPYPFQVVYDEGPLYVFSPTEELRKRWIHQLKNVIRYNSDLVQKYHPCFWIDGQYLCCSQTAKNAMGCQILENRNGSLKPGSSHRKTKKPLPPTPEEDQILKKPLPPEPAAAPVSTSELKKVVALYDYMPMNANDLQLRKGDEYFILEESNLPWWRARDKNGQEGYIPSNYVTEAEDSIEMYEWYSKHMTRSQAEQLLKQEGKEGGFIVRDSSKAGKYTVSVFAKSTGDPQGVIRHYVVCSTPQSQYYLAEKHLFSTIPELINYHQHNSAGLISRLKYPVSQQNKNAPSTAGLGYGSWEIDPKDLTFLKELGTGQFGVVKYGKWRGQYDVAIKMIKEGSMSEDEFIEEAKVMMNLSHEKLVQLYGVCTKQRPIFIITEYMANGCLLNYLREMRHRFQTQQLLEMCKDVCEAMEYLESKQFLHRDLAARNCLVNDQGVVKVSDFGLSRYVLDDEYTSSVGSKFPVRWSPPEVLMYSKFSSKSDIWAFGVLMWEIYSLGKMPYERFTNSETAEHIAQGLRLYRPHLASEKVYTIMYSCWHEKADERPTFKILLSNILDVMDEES
# LCK = LCK (Homo sapiens, UniProt P06239); test: Inhibition of a panel of kinases, in vitro HotSpot kinase assay: LCK; conditions: E compounds, Table 17; read-out: IC50 LCK
# Chain of LCK (P06239 whole entry): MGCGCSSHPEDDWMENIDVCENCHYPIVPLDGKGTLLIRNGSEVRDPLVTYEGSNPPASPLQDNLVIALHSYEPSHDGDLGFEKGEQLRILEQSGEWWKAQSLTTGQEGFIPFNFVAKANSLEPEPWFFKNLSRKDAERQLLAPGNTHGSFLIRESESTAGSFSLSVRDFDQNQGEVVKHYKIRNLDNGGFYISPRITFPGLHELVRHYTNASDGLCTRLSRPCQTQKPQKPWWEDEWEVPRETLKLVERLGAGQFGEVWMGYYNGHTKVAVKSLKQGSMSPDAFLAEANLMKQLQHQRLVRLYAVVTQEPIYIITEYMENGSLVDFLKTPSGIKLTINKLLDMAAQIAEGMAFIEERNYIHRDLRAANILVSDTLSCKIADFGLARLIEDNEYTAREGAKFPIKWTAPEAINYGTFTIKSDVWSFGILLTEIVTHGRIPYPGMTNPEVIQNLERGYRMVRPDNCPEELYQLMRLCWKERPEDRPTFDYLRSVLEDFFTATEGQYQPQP
# ITK = biological target: T2, ITK (Homo sapiens, UniProt Q08881); test: Inhibition of a panel of kinases, in vitro HotSpot kinase assay: ITK; conditions: E compounds, Table 17
# T2 sequence (Q08881 1-620): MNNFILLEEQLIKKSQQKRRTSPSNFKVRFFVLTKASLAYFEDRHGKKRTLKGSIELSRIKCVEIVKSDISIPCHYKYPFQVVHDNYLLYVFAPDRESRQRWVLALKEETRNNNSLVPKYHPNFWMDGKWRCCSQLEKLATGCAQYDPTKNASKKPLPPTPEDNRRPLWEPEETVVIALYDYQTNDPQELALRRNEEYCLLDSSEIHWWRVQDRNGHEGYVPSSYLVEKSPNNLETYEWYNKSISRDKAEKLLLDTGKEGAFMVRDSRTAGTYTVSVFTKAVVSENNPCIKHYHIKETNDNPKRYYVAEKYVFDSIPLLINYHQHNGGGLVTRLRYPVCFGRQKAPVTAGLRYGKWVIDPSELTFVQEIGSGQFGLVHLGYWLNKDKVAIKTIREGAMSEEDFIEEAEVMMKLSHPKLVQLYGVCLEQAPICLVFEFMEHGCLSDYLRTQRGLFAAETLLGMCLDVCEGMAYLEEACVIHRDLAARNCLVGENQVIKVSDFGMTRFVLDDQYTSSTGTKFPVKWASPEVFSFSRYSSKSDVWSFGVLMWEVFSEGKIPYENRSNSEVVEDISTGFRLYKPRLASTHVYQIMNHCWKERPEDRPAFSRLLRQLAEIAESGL
# Protocol: (§1) The degree of inhibition of a panel of kinases is determined using the in vitro HotSpot kinase assay (purified enzymes, ^33P-ATP, an appropriate substrate and 1 μM ATP).
# EGFR = EGFR (Homo sapiens, UniProt P00533); test: Inhibition of a panel of kinases, in vitro HotSpot kinase assay: EGFR; conditions: E compounds, Table 17
# Chain of EGFR (P00533 25-1210): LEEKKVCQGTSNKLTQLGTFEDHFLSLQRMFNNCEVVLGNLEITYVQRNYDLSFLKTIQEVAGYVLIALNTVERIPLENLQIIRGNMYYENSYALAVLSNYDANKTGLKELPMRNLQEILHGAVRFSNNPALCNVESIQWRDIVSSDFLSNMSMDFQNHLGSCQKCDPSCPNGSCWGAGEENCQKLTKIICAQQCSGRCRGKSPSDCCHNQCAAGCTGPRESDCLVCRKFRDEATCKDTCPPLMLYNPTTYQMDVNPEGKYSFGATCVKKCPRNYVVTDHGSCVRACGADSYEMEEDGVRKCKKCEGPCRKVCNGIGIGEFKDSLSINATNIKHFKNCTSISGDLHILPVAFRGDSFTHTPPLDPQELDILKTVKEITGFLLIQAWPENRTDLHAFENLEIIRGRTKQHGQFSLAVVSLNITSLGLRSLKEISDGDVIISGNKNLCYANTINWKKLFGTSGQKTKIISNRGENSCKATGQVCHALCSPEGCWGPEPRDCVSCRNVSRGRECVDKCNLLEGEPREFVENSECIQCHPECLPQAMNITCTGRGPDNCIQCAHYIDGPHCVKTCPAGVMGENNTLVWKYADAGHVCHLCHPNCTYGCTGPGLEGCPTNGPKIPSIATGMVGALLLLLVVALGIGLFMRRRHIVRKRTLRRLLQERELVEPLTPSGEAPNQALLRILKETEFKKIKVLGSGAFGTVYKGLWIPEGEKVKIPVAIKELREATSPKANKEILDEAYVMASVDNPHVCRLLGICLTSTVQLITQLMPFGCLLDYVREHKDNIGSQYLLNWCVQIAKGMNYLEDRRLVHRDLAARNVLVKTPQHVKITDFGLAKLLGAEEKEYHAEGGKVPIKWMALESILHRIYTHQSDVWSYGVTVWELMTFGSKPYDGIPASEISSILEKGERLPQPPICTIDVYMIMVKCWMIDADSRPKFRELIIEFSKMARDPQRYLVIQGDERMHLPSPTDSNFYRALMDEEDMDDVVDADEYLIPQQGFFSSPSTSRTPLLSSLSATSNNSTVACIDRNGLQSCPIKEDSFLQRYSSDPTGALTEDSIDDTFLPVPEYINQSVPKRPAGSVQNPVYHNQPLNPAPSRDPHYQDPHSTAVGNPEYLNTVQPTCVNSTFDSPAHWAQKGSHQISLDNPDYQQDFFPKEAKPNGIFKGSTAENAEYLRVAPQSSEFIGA
# Protocol: as §1
# SRC = SRC (Homo sapiens, UniProt P12931); test: Inhibition of a panel of kinases, in vitro HotSpot kinase assay: SRC; conditions: E compounds, Table 17
# Chain of SRC (P12931 whole entry): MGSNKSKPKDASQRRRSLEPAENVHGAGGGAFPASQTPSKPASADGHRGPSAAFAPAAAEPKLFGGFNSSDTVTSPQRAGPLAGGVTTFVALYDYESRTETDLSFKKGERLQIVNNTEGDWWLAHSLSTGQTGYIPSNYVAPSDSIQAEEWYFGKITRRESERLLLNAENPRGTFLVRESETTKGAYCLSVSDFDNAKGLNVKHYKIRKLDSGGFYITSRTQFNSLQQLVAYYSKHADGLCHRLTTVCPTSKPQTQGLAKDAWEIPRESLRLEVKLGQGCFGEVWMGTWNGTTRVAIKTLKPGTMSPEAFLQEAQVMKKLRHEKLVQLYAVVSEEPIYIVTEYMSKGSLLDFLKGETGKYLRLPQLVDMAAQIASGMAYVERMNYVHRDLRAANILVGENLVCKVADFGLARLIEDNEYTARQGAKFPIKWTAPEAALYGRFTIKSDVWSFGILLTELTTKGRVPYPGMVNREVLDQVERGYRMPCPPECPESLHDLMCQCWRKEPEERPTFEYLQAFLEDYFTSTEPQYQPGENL
# Protocol: as §1
# TEC = biological target: T3, TEC (Homo sapiens, UniProt P42680); test: Inhibition of a panel of kinases, in vitro HotSpot kinase assay: TEC; conditions: E compounds, Table 17
# T3 sequence (P42680 1-631): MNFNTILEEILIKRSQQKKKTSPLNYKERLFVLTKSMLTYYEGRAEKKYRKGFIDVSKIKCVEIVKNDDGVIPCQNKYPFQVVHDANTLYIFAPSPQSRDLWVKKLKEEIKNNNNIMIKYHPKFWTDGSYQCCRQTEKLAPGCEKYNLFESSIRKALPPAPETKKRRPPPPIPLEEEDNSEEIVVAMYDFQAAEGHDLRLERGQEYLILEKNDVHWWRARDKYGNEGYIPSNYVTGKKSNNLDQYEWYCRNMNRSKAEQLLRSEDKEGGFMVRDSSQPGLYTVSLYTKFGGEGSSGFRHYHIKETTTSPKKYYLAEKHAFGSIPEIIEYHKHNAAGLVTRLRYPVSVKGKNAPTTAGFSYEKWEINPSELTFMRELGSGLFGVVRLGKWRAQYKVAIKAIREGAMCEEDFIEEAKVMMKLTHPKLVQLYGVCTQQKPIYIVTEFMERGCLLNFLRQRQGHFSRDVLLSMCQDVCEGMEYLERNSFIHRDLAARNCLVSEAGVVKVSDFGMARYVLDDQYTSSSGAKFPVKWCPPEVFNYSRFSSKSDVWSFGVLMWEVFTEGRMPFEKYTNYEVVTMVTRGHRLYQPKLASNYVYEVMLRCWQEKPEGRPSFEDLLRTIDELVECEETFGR
# Protocol: as §1
Compound,IC50 (BTK-WT) [nM],IC50 (LCK) [nM],IC50 (ITK) [nM],IC50 (EGFR) [nM],IC50 (SRC) [nM],IC50 (TEC) [nM]
"C[C@@H]1[C@H](NC(=O)c2ccc(C(=O)N(C)C)cc2)CCCN1c1cnc(C(N)=O)c(Nc2cnn(C)c2)n1 [Example E-138, N1-((2R,3R)-1-(5-carbamoyl-6-((1-methyl-1H-pyrazol-4-yl)amino)pyrazin-2-yl)-2-methylpiperidin-3-yl)-N4,N4-dimethylterephthalamide]",≤ 10,100 to 1000,100 to 1000,100 to 1000,10 to 100,≤ 10
"C[C@@H]1[C@H](NC(=O)c2ccc3oc(C4CC4)nc3c2)CCCN1c1cnc(C(N)=O)c(Nc2cnn(C)c2)n1 [Example E-139, N-((2R,3R)-1-(5-carbamoyl-6-((1-methyl-1H-pyrazol-4-yl)amino)pyrazin-2-yl)-2-methylpiperidin-3-yl)-2-cyclopropylbenzo[d] oxazole-5-carboxamide]",≤ 10,10 to 100,100 to 1000,100 to 1000,10 to 100,≤ 10
"C[C@@H]1CCN(c2cnc(C(N)=O)c(Nc3cnn(C)c3)n2)C[C@@H]1NC(=O)c1ccc(C2CC2)cc1 [Example E-140, 5-((3R,4R)-3-(4-cyclopropylbenzamido)-4-methylpiperidin-1-yl)-3-((1-methyl-1H-pyrazol-4-yl)amino)pyrazine-2-carboxamide]",100 to 1000,1000 to 10000,> 10000,> 10000,> 10000,1000 to 10000
"Cn1cc(Nc2nc(N3CCC4CCN(C(=O)c5ccc(C6CC6)cc5)C4C3)cnc2C(N)=O)cn1 (stereo not drawn) [Example E-141, 5-(1-(4-cyclopropylbenzoyl)octahydro-6H-pyrrolo[2,3-c]pyridin-6-yl)-3-((1-methyl-3H-pyrazol-4-yl)amino)pyrazine-2-carboxamide]",100 to 1000,100 to 1000,1000 to 10000,100 to 1000,100 to 1000,100 to 1000
"C[C@@H]1[C@H](NC(=O)c2ccc(C3CC3)cc2)CCCN1c1cnc(C(N)=O)c(Nc2ccc(N3CCN(C4COC4)C[C@@H]3C)cc2)n1 [Example E-142, 5-((2R,3R)-3-(4-cyclopropylbenzamido)-2-methylpiperidin-1-yl)-3-((4-((S)-2-methyl-4-(oxetan-3-yl)piperazin-1-yl)phenyl)amino)pyrazine-2-carboxamide]",≤ 10,10 to 100,10 to 100,1000 to 10000,10 to 100,≤ 10
"C[C@@H]1[C@H](NC(=O)c2ccc(C(C)(C)N3CCCC3)cc2)CCCN1c1cnc(C(N)=O)c(Nc2cnn(C)c2)n1 [Example E-143, 3-((1-methyl-1H-pyrazol-4-yl)amino)-5-((2R,3R)-2-methyl-3-(4-(2-(pyrrolidin-1-yl)propan-2-yl)benzamido)piperidin-1-yl)pyrazine-2-carboxamide]",≤ 10,10 to 100,100 to 1000,> 10000,10 to 100,≤ 10
"C[C@@H]1[C@H](NC(=O)c2ccc(C3CC3)cc2)CCCN1c1cnc(C(N)=O)c(Nc2cnc(C3CCOCC3)nc2)n1 [Example E-144, 5-((2R,3R)-3-(4-cyclopropylbenzamido)-2-methylpiperidin-1-yl)-3-((2-(tetrahydro-2H-pyran-4-yl)pyrimidin-5-yl)amino)pyrazine-2-carboxamide]",10 to 100,100 to 1000,100 to 1000,> 10000,100 to 1000,100 to 1000
"C[C@@H]1[C@H](NC(=O)c2cccc(C(C)(C)O)c2)CCCN1c1cnc(C(N)=O)c(Nc2cnn(C)c2)n1 [Example E-145, 5-((2R,3R)-3-(3-(2-hydroxypropan-2-yl)benzamido)-2-methylpiperidin-1-yl)-3-((1-methyl-1H-pyrazol-4-yl)amino)pyrazine-2-carboxamide]",≤ 10,10 to 100,100 to 1000,100 to 1000,10 to 100,≤ 10
"C[C@@H]1[C@H](NC(=O)c2cc(C(C)(C)C)nn2C)CCCN1c1cnc(C(N)=O)c(Nc2cnn(C)c2)n1 [Example E-146, 5-((2R,3R)-3-(3-(tert-butyl)-1-methyl-1H-pyrazole-5-carboxamido)-2-methylpiperidin-1-yl)-3-((1-methyl-1H-pyrazol-4-yl)amino)pyrazine-2-carboxamide]",≤ 10,10 to 100,100 to 1000,1000 to 10000,10 to 100,≤ 10
"C[C@@H]1[C@H](NC(=O)c2ccc(C(C)(C)O)cc2)CCCN1c1cnc(C(N)=O)c(Nc2ccc(C3(C)CCN(C4CC4)CC3)cc2)n1 [Example E-147, 3-((4-(1-cyclopropyl-4-methylpiperidin-4-yl)phenyl)amino)-5-((2R,3R)-3-(4-(2-hydroxypropan-2-yl)benzamido)-2-methylpiperidin-1-yl)pyrazine-2-carboxamide]",≤ 10,< 10,10 to 100,100 to 1000,≤ 10,≤ 10
"C[C@@H]1[C@H](NC(=O)c2ccc(C3CC3)cc2)CCCN1c1cnc(C(N)=O)c(Nc2ccc(N3CCN(C)C[C@@H]3C)cc2)n1 [Example E-148, 5-((2R,3R)-3-(4-cyclopropylbenzamido)-2-methylpiperidin-1-yl)-3-((4-((S)-2,4-dimethylpiperazin-1-yl)phenyl)amino)pyrazine-2-carboxamide]",≤ 10,10 to 100,10 to 100,100 to 1000,10 to 100,≤ 10
"C[C@@H]1[C@H](NC(=O)c2noc(C(C)(C)C)n2)CCCN1c1cnc(C(N)=O)c(Nc2cnn(C)c2)n1 [Example E-149, 5-(tert-butyl)-N-((2R,3R)-1-(5-carbamoyl-6-((1-methyl-1H-pyrazol-4-yl)amino)pyrazin-2-yl)-2-methylpiperidin-3-yl)-1,2,4-oxadiazole-3-carboxamide]",100 to 1000,1000 to 10000,1000 to 10000,1000 to 10000,1000 to 10000,100 to 1000
"Cn1cc(Nc2nc(N3CCCC(C)(NC(=O)c4ccc(C5CC5)cc4)C3)cnc2C(N)=O)cn1 (stereo not drawn) [Example E-150, 5-(3-(4-cyclopropylbenzamido)-3-methylpiperidin-1-yl)-3-((1-methyl-1H-pyrazol-4-yl)amino)pyrazine-2-carboxamide]",100 to 1000,1000 to 10000,> 10000,> 10000,1000 to 10000,100 to 1000
"CCC(O)(CC)c1ccc(C(=O)N[C@@H]2CCCN(c3cnc(C(N)=O)c(Nc4cnn(C)c4)n3)[C@@H]2C)cc1 [Example E-151, 5-((2R,3R)-3-(4-(3-hydroxypentan-3-yl)benzamido)-2-methylpiperidin-1-yl)-3-((1-methyl-1H-pyrazol-4-yl)amino)pyrazine-2-carboxamide]",≤ 10,100 to 1000,100 to 1000,100 to 1000,10 to 100,≤ 10
"Cc1cc(C(=O)N[C@@H]2CCCN(c3cnc(C(N)=O)c(Nc4cnn(C)c4)n3)[C@@H]2C)ccc1C(C)(C)O [Example E-152, 5-((2R,3R)-3-(4-(2-hydroxypropan-2-yl)-3-methylbenzamido)-2-methylpiperidin-1-yl)-3-((1-methyl-1H-pyrazol-4-yl)amino)pyrazine-2-carboxamide]",≤ 10,10 to 100,100 to 1000,1000 to 10000,10 to 100,≤ 10
